Values quoted from earlier work as cited in patent US7393545B2, “Lipstatin derivative—soluble fiber tablets” (priority 1999, dated 2008).

How the values were obtained:
[1] = diet-induced obese rats, 27 mg/kg/day
[2] = target: T1, pancreatic lipase (Homo sapiens, UniProt P16233)
T1 sequence (P16233 17-465): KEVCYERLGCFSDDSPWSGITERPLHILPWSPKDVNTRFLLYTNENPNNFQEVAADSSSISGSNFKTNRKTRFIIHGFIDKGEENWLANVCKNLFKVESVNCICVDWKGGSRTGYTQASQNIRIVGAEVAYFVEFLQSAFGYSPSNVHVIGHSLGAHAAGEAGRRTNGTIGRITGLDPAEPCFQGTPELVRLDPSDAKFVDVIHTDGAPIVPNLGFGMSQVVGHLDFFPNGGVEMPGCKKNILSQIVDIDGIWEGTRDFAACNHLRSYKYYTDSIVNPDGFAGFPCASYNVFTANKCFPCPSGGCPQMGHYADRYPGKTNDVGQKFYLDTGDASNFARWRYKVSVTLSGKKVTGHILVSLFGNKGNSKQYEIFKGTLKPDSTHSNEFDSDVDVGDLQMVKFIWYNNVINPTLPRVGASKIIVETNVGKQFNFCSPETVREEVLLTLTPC

[3] = in vivo
[4] = first year of a 2 year study, 228 patients, 3× daily, mildly hypocaloric diet
[5] = placebo-controlled clinical studies, over 5000 obese patients

**Q.** Which “more weight lost than the placebo controlled group” value [4] does the source give for `CCCCCCCCCCC[C@@H](C[C@@H]1OC(=O)[C@H]1CCCCCC)OC(=O)[C@H](CC(C)C)NC=O` [Orlistat, tetrahydrolipostatin] here?
**A.** 65%

**Q.** What about the “share of patients having lost >10% of their bodyweight” value [4] of the same compound?
**A.** ⅓

**Q.** What about the “patients who lost 10% or more body weight compared to placebo and diet alone” value (first year of a two year study, moderately reduced calorie diet) of the same compound?
**A.** 3 times

**Q.** And the adverse side-effects [5]?
**A.** no major adverse side-effects

**Q.** What about the weight loss [5] of the same compound?
**A.** significant weight loss

**Q.** What about the “decrease in carcass fat” value [1] of the same compound?
**A.** 54 g

**Q.** And the “decrease in liver weight” value [1]?
**A.** 13%

**Q.** And the “increase in large intestine weight” value [1]?
**A.** 38%

**Q.** What about the “increase in small intestine weight” value [1] of the same compound?
**A.** 27%

**Q.** What about the “loss of body weight” value [1] of the same compound?
**A.** 65 g

**Q.** What about the “retroperitoneal (RP) pad weight” value [1] of the same compound?
**A.** decreases

**Q.** What about the fat absorption ([1]; decreased from 93-94%) of the same compound?
**A.** 17-19%

**Q.** And the “inhibition of pancreatic lipase” value [2]?
**A.** potent and selective inhibitor

**Q.** What about the “fat contained in food whose absorption is prevented” value [3] of the same compound?
**A.** about one third
